{"source": "patent US9085593B2", "about": "“Therapeutic agent for arthrosis” (SANSHO CO., LTD., priority 2011, dated 2015)", "test_system": "osteoarthritis in rabbit knee", "assay": "Histopathological evaluation of femur and tibia condyles, rabbit knee osteoarthritis model", "assay_type": "in vivo, rabbits (Kbs:NZW)", "design": "key to Fibrillation and/or fissure / Lowered proteoglycan stainability / Disorganization of chondrocytes / Loss of chondrocytes / Exposure of subchondral bone / Cluster formation / Histopathological score / Loss of superficial layer / Cartilage erosion: 0: None; 1: slight; 2: mild; 3: moderate; 4: severe; key to Disorganization of chondrocytes, Mean / Loss of chondrocytes, Mean / Exposure of subchondral bone, Mean / Cluster formation, Mean / Cartilage erosion, Mean: grade 0 to +4 per item; key to Histopathological score, Mean: sum of 8 items each graded 0 to +4", "details": "for Cluster formation / Disorganization of chondrocytes / Exposure of subchondral bone / Fibrillation and/or fissure / Loss of chondrocytes / Lowered proteoglycan stainability / Cartilage erosion / Loss of superficial layer / Histopathological score / Cartilage erosion, Mean / Cluster formation, Mean / Disorganization of chondrocytes, Mean / Exposure of subchondral bone, Mean / Fibrillation and/or fissure, Mean / Loss of chondrocytes, Mean / Loss of superficial layer, Mean / Lowered proteoglycan stainability, Mean / Histopathological score, Mean: day 42; for Cluster formation / Disorganization of chondrocytes / Exposure of subchondral bone / Fibrillation and/or fissure / Loss of chondrocytes / Lowered proteoglycan stainability / Cartilage erosion / Loss of superficial layer / Histopathological score: individual animals 201-206; for Cluster formation / Disorganization of chondrocytes / Exposure of subchondral bone / Fibrillation and/or fissure / Loss of chondrocytes / Lowered proteoglycan stainability / Cartilage erosion / Loss of superficial layer: grade 0-4; for Histopathological score: sum of all items; for Cartilage erosion, Mean / Cluster formation, Mean / Disorganization of chondrocytes, Mean / Exposure of subchondral bone, Mean / Fibrillation and/or fissure, Mean / Loss of chondrocytes, Mean / Loss of superficial layer, Mean / Lowered proteoglycan stainability, Mean / Histopathological score, Mean: group mean n=6", "method": "Twelve 11- to 12-week-old male rabbits (Kbs:NZW) were used. Rabbits were reared in separate cages (one rabbit per cage) at 14.4° C. to 24.9° C. under light (12 hours from 7:00 am to 7:00 pm) with continuous ventilation. Rabbits were allowed to eat 150 g of feed (CR-3, CLEA Japan, Inc.) per day and to drink tap water.\n(9Z)-9-Octadecenoic acid-(2-hydroxy-2-oxide-1,2-oxaphospholan-4-yl)methyl ester sodium salt (C18:1-cPA; hereafter, referred to as “ScPA”) was used.\nHair in the vicinity of the knee joint of the right hind limb of a rabbit was shaved using electrical clippers under deep anesthesia, and the shaved area was disinfected with Isodine. The outer coat on the medial aspect of the right hind limb was incised with a surgical knife, the boundary between the medial aspect and the articular capsule of the patellofemoral ligament was further incised, and the medial patellofemoral ligament was then dissected. Thereafter, the articular capsule was spread wide open to expose the medial meniscus, which was then completely removed. Following the removal of the meniscus, tissue and epidermis in the vicinity of the articular capsule were sutured. At the time of suturing, the site of operation was washed with physiological saline (titer: 500 mg/20 ml) containing antibiotics (Viccillin, Meiji Seika Pharma Co., Ltd.).\nAfter the model animals were prepared, they were divided into two groups each consisting of 6 individuals while averaging body […] (i.e., the vehicle administered group of Animal Numbers 101 to 106 and the test substance (ScPA) administered group of Animal Numbers 201 to 206).\nThe test compound and the vehicle were administered in the manner described below. • Route of administration: into the joint cavity • Site of administration: right hind limb (treated limb) • Timing of administration: on days 7, 11, 14, 18, 21, 25, 28, 32, 35, and 39 • Dosage: Test compound: 10 μg/rabbit (volume: 0.2 ml) • Vehicle: 0.2 ml/rabbit • Means of administration: with the use of a 1.0-ml syringe (Terumo Corporation) and a 27 G injection needle (Terumo Corporation) (1-5) Pain Assessment (Weight Distribution Across both Hind Limbs) Frequency of Measurement:\nFour limbs were dissected from the animals under deep anesthesia, causing them to bleed to death. Thereafter, the femur condyle and the tibial condyle were removed from the knee joint of the treated limb (the right hind limb), followed by fixation in a 10% neutral buffered formalin solution.\nThe femur and the tibia that had been soaked and fixed in a 10% neutral buffered formalin solution were subjected to demineralization with EDTA. After the completion of demineralization, the colored sites identified below were embedded in paraffin in accordance with a conventional technique, and the resultant was sliced to a thickness of 4 μm each. The slices were subjected to hematoxylin-eosin (HE) staining and safranin O (proteoglycan) staining and histopathologically examined under an optical microscope (BX51TF; OLYMPUS). The degree of cartilage degeneration of the pathological specimens was evaluated in accordance with the criteria shown in Table 1 below (Kikuchi, T, Yoneda, H. et al., Osteoarthritis cartilage, 4; p. 99 and continuing pages, 1996). Specifically, the specimens were evaluated in terms of loss of the following 8 items according to a five-grade evaluation (0 to +4): superficial layer; cartilage erosion; fibrillation and/or fissure; lowered proteoglycan stainability (safranin O stainability); disorganization of chondrocytes; loss of chondrocytes; exposure of subchondral bone; and cluster formation. The sum total score of all items was defined as the overall score. Observation items without specific criteria defined in Table 1 were evaluated in accordance with the criteria shown in Table 2 below (Naoki Ishiguro et al., Journal of Surgery, 29: p. 112 and continuing pages, 2010).", "key": {"[1]": {"details": "lateral condyle of femur, listed as Test substance, sodium salt"}, "[2]": {"details": "lateral condyle of tibia, listed as Test substance, sodium salt"}, "[3]": {"details": "medial condyle of femur, listed as Test substance, sodium salt"}, "[4]": {"details": "medial condyle of the femur, of 6 samples"}, "[5]": {"details": "medial condyle of the tibia, of 6 samples"}, "[6]": {"details": "medial condyle of tibia, listed as Test substance, sodium salt"}}, "note": "“And” between values parts separate entries of the source, which are not always exact repeats. Equal entries are not always repeated."}
{"smiles": "CCCCCCCC/C=C\\CCCCCCCC(=O)OCC1COP(=O)([O-])C1.[Na+]", "note": "(stereo not shown) [ScPA, (9Z)-9-Octadecenoic acid-(2-hydroxy-2-oxide-1,2-oxaphospholan-4-yl)methyl ester sodium salt]", "values": [{"measurement": "cartilage erosion in histopathological image (FIG. 12 B)", "setting": "Animal No. 201, medial aspect of the right femur, HE staining", "value": "slight"}, {"measurement": "joint cartilage change in histopathological image (FIG. 12 D)", "setting": "Animal No. 201, medial aspect of the right femur, SO staining", "value": "no change"}, {"measurement": "Cluster formation", "setting": "lateral condyle of femur", "value": 0}, {"measurement": "Disorganization of chondrocytes", "setting": "lateral condyle of femur", "value": 0}, {"measurement": "Exposure of subchondral bone", "setting": "lateral condyle of femur", "value": 0}, {"measurement": "Fibrillation and/or fissure", "setting": "lateral condyle of femur", "value": 0}, {"measurement": "Loss of chondrocytes", "setting": "lateral condyle of femur", "value": 0}, {"measurement": "Lowered proteoglycan stainability", "setting": "lateral condyle of femur", "value": 0}, {"measurement": "Cartilage erosion", "setting": "[1]", "value": "0 (4×) and 1 (2×)"}, {"measurement": "Loss of superficial layer", "setting": "[1]", "value": "0 (4×) and 1 (2×)"}, {"measurement": "Histopathological score", "setting": "[1]", "value": "0 (4×) and 2 (2×)"}, {"measurement": "Cartilage erosion", "setting": "lateral condyle of tibia", "value": 0}, {"measurement": "Cluster formation", "setting": "lateral condyle of tibia", "value": 0}, {"measurement": "Disorganization of chondrocytes", "setting": "lateral condyle of tibia", "value": 0}, {"measurement": "Exposure of subchondral bone", "setting": "lateral condyle of tibia", "value": 0}, {"measurement": "Fibrillation and/or fissure", "setting": "lateral condyle of tibia", "value": 0}, {"measurement": "Loss of chondrocytes", "setting": "lateral condyle of tibia", "value": 0}, {"measurement": "Loss of superficial layer", "setting": "lateral condyle of tibia", "value": 0}, {"measurement": "Lowered proteoglycan stainability", "setting": "[2]", "value": "0 (3×) and 1 (3×)"}, {"measurement": "Histopathological score", "setting": "[2]", "value": "0 (3×) and 1 (3×)"}, {"measurement": "damages resulting from the preparation of osteoarthritis models", "setting": "lateral condyles of the femur and of the tibia", "value": "substantially no damages"}, {"measurement": "Cartilage erosion, Mean", "setting": "medial condyle of femur", "value": 1.17}, {"measurement": "Cluster formation, Mean", "setting": "medial condyle of femur", "value": 2.17}, {"measurement": "Disorganization of chondrocytes, Mean", "setting": "medial condyle of femur", "value": 0.83}, {"measurement": "Exposure of subchondral bone, Mean", "setting": "medial condyle of femur", "value": 0.33}, {"measurement": "Fibrillation and/or fissure, Mean", "setting": "medial condyle of femur", "value": 0.67}, {"measurement": "Loss of chondrocytes, Mean", "setting": "medial condyle of femur", "value": 0.83}, {"measurement": "Loss of superficial layer, Mean", "setting": "medial condyle of femur", "value": 1.17}, {"measurement": "Lowered proteoglycan stainability, Mean", "setting": "medial condyle of femur", "value": 1.17}, {"measurement": "Histopathological score, Mean", "setting": "medial condyle of femur, p=0.0649 vs vehicle, listed as Test substance, sodium salt", "value": 8.33}, {"measurement": "Histopathological score, Mean", "setting": "medial condyle of femur, p=0.0649 vs vehicle, listed as test substance, sodium salt", "value": "8.33±2.51"}, {"measurement": "Cartilage erosion", "setting": "[3]", "value": "1 (4×) and 0 and 3"}, {"measurement": "Cluster formation", "setting": "[3]", "value": "2 (4×) and 4 and 1"}, {"measurement": "Disorganization of chondrocytes", "setting": "[3]", "value": "0 and 1 (5×)"}, {"measurement": "Exposure of subchondral bone", "setting": "[3]", "value": "0 (5×) and 2"}, {"measurement": "Fibrillation and/or fissure", "setting": "[3]", "value": "1 and 0 (4×) and 3"}, {"measurement": "Loss of chondrocytes", "setting": "[3]", "value": "0 (3×) and 1 (2×) and 3"}, {"measurement": "Loss of superficial layer", "setting": "[3]", "value": "1 (4×) and 0 and 3"}, {"measurement": "Lowered proteoglycan stainability", "setting": "[3]", "value": "1 (2×) and 2 and 0 (2×) and 3"}, {"measurement": "Histopathological score", "setting": "[3]", "value": "6 (2×) and 10 and 3 and 20 and 5"}, {"measurement": "Histopathological score", "setting": "medial condyle of femur, listed as test substance, sodium salt", "value": "6 (2×) and 5 and 10 and 3 and 20"}, {"measurement": "samples in which cartilage erosion was observed", "setting": "[4]", "value": 5}, {"measurement": "samples in which cluster formation was observed", "setting": "[4]", "value": 6}, {"measurement": "samples in which disorganization of chondrocytes was observed", "setting": "[4]", "value": 5}, {"measurement": "samples in which loss of cartilage superficial layer was observed", "setting": "[4]", "value": 5}, {"measurement": "samples with changes lesser than those observed in the vehicle administered group", "setting": "[4]", "value": 4}, {"measurement": "histopathological scores compared with the vehicle administered group", "setting": "medial condyle of the femur, p=0.0649", "value": "lower than those of the vehicle administered group"}, {"measurement": "samples in which cartilage fibrillation and/or fissure was observed", "setting": "[5]", "value": 6}, {"measurement": "samples in which loss of cartilage superficial layer was observed", "setting": "[5]", "value": 5}, {"measurement": "samples in which lowered proteoglycan stainability was observed", "setting": "[5]", "value": 5}, {"measurement": "Cartilage erosion, Mean", "setting": "medial condyle of tibia", "value": 1.17}, {"measurement": "Cluster formation, Mean", "setting": "medial condyle of tibia", "value": 1.50}, {"measurement": "Disorganization of chondrocytes, Mean", "setting": "medial condyle of tibia", "value": 1.33}, {"measurement": "Exposure of subchondral bone, Mean", "setting": "medial condyle of tibia", "value": 0.50}, {"measurement": "Fibrillation and/or fissure, Mean", "setting": "medial condyle of tibia", "value": 1.50}, {"measurement": "Loss of chondrocytes, Mean", "setting": "medial condyle of tibia", "value": 0.67}, {"measurement": "Loss of superficial layer, Mean", "setting": "medial condyle of tibia", "value": 2.00}, {"measurement": "Lowered proteoglycan stainability, Mean", "setting": "medial condyle of tibia", "value": 1.83}, {"measurement": "Histopathological score, Mean", "setting": "medial condyle of tibia, p=0.6991 vs vehicle, listed as Test substance, sodium salt", "value": 10.50}, {"measurement": "Histopathological score, Mean", "setting": "medial condyle of tibia, p=0.6991 vs vehicle, listed as test substance, sodium salt", "value": "10.50±3.91"}, {"measurement": "Cartilage erosion", "setting": "[6]", "value": "2 and 1 (2×) and 0 (2×) and 3"}, {"measurement": "Cluster formation", "setting": "[6]", "value": "4 and 1 (2×) and 0 (2×) and 3"}, {"measurement": "Disorganization of chondrocytes", "setting": "[6]", "value": "2 and 1 (2×) and 0 (2×) and 4"}, {"measurement": "Exposure of subchondral bone", "setting": "[6]", "value": "0 (5×) and 3"}, {"measurement": "Fibrillation and/or fissure", "setting": "[6]", "value": "1 (4×) and 3 and 2"}, {"measurement": "Loss of chondrocytes", "setting": "[6]", "value": "0 (4×) and 3 and 1"}, {"measurement": "Loss of superficial layer", "setting": "[6]", "value": "3 (2×) and 1 (2×) and 0 and 4"}, {"measurement": "Lowered proteoglycan stainability", "setting": "[6]", "value": "4 (2×) and 1 (3×) and 0"}, {"measurement": "Histopathological score", "setting": "[6]", "value": "16 and 6 and 1 and 27 and 9 and 4"}, {"measurement": "Histopathological score", "setting": "medial condyle of tibia, listed as test substance, sodium salt", "value": "4 and 16 and 6 and 1 and 27 and 9"}]}
